# Experimental data reported in US20240293367A1, “METHODS OF TREATING DISORDERS WITH A […]” (Cybin IRL Limited, priority 2023, published 2024).
# How the values were obtained:
# [1] = 28-day (4-week GLP) toxicology study in dogs, toxicokinetic exposure; conditions: both sexes, dog, in vivo, toxicokinetic data, 28-day toxicology study in dogs, combined male and female
# Description: The exposure limits will be applied on mean values within a cohort.
structure (smiles),measurement,setting,value
"[2H]C([2H])([2H])N(C([2H])([2H])[2H])C([2H])([2H])C([2H])([2H])c1c[nH]c2cccc(O)c12 [psilocin-d10, 3-(2-(bis(methyl-d3)amino)ethyl-1,1,2,2-d4)-1H-indol-4-ol]",AUC(0-t),"[1]; read-out: predefined maximum exposure level, AUC0-24",123 ng·h/mL
same,Cmax,"[1]; read-out: predefined maximum exposure level, Cmax",63 ng/mL
same,bioavailability,"Sprague Dawley, rat, in vivo, po",~60%
same,reduction in oral concentration (Cmax) in comparison to psilocin after psilocybin,"oral, Sprague Dawley rats, molar dose-normalised",16%
same,difference in systemic exposure versus psilocin,rats,~30%
